In data set [1] the test system is ceramide-activated protein kinase. Kind of data set: CAP kinase activation in HL-60 cells (renaturation and autophosphorylation). The data set is classed as cell-based, human (HL-60 cells). The following applies: TPA 100 ng/ml. The method, then:
Stimulation of ceramide-activated protein (CAP) kinase by lipid A. On the day of an experiment, HL-60 cells were resuspended (1×10^6 cells ml^-1) into serum-free RPMI 1640 containing 5 μg ml^-1 insulin and transferrin. After 2 h, cells were stimulated with lipid A (Escherichia Coli) or diluent (DMSO, <0.01%). Ceramide-activated protein kinase contained within microsomal membranes was detected by renaturation and autophosphorylation. Briefly, membrane proteins (200 μg per lane) were separated by SDS-PAGE (10%), and the gel was washed with two changes of buffer (50 mM Tris, pH 7.4, 5 mM 2-mercaptoethanol) containing 20% 2-propanol at room temperature for 1 h, and once in buffer without 2-propanol for 1 h. Denaturation was accomplished by incubation of the gel in two changes of 6M guanidinium HCl in wash buffer for 1 h each. Renaturation was accomplished by incubation of the gel overnight at 4° C. in wash buffer containing 0.04% Tween-20. The gel was then equilibrated for 10 min at room temperature in kinase reaction mixture (25 mM HEPES, pH 7.4, 10 mM MgCl2, 0.5 mM EGTA and 5 mM NaF) and [γ-^32 p] ATP (50 μM final concentration; 1000 dpm pmol^-1) was added. Autophosphorylation was terminated by removal of the reaction mixture. The gel was washed with 6 changes of buffer (5% trichloroacetic acid, 1% sodium pyrophosphate) for 2 h and subjected to autoradiography. Top panel--Time course of lipid A activation. Bottom panel--Dose response at 5 minutes of lipid A stimulation. Autoradiograms represent one of three similar studies in both panels A and B.
On the day of an experiment, cells were resuspended (1×10^6 cells ml^-1) into serum-free RPMI 1640 containing 5 μg ml^-1 insulin and transferrin. After 2 h, cells were stimulated with lipid A or diluent (DMSO, <0.01% ). […] The postnuclear supernate was centrifuged at 200,000×g for 30 min and microsomal membranes were resuspended ([…]) into homogenizing buffer. Ceramide-activated protein kinase was detected by renaturation and autophosphorylation. Briefly, membrane proteins (200 μg per lane) were separated by SDS-PAGE (10%), and the gel was washed with two changes of buffer (50 mM Tris, pH 7.4, 5 mM 2-mercaptoethanol) containing 20% 2-propanol at room temperature for 1 h, and once in buffer without 2-propanol for 1 h. Denaturation was accomplished by incubation of the gel in two changes of 6M guanidinium HCl in wash buffer for 1 h each. Renaturation was accomplished by incubation of the gel overnight at 4° C. in wash buffer containing 0.04% Tween-20. The gel was then equilibrated for 10 min at room temperature in kinase reaction mixture (25 mM HEPES, pH 7.4, 10 mM MgCl2, 0.5 mM EGTA and 5 mM NaF) and [γ-^32 P] ATP (50 μM final concentration; 1000 dpm pmol^-1. Autophosphorylation was terminated by removal of the reaction mixture. The gel was washed with 6 changes of buffer (5% trichloracetic acid, 1% sodium pyrophosphate) for 2 h and subjected to autoradiography.
For studies involving activation of ceramide-activated protein kinase by LPS, HL-60 cells (13×10^6 ml^-1) were handled as above, and LPS (Salmonella typhosa, 50 ng ml^-1), recombinant LBP (1.7 μg ml^-1) or both LPS and LBP were added for the times indicated. Isolation of microsomal membranes and autophosphorylation of ceramide-activated protein kinase were performed as above.

Data set [2] has the same test system. Kind of data set: Ceramide-activated protein kinase activity (EGFR peptide) in EL-4 cell fractions. The following applies: 10 nM to 1 μM.

Take `CCCCCCCCCCCCCC(=O)O[C@@H]1[C@@H](C)[C@@]2(O)[C@@H](C=C(CO)C[C@]3(O)C(=O)C(C)=C[C@@H]23)[C@@H]2C(C)(C)[C@]12OC(C)=O` [TPA, 12-0-tetradecanoylphorbol-13-acetate]: the “activation of CAP kinase” value in data set [1] was “did not activate CAP kinase”.
On to `CCCCCCCCCCCCC/C=C/[C@@H](O)[C@@H](N)CO` [sphingosine], for which, in data set [2], the “enhancement of kinase activity, of control” value is reported as 1.5-2.5 of control.

For the origin of these results see US6040149A, “Assay for identifying agents which act on the ceramide-activated protein kinase, kinase suppressor of ras, and methods of using said agents” (priority 1997, dated 2000).
